The source of these data is patent US4428955A, “Benzopyran compounds, pharmaceutical compositions containing them and methods of use” (Boehringer Mannheim GmbH, priority 1981, dated 1984).

For this experiment, the system named is antigen induced bronchospasm. Put plainly: Inhibition of antigen induced bronchospasm in passively sensitized guinea pigs. It counts as in vivo, guinea pig. The following applies: 60 min before antigen, 3 min after antigen application. The procedure: The following tests were conducted to determine the effectiveness of the new compounds in the inhibition of antigen induced bronchospasm in passively sensitized guinea pigs.
The antigen is twice recrystallised egg albumin. Equal volumes of saline solution of antigen (5 mg/ml) and Freund's complete adjuvant were emulsified and 0.15 ml injected into each hind foot of adult male guinea pigs (DAVIES and JOHNSON: Int. Arch. Allergy 41, 648-654 (1971)).
The animals were bled and the pooled serum stored at -20° C.
Injections of 0.5 ml antiserum of 1:50 dilution were given i.v. 24-48 h before challenge.
Guinea pigs were anaesthetized with pentobarbitone sodium (40 mg/kg i.p.). Cannulae were tied into the trachea and the jugular vein and the lung inflated with a pump at a rate of 72 strokes/min and a constant stroke volume of 6-8 ml.
Bronchospasm, provoked by injecting ovalbumin i.v. was measured as described in COLLIER, H. O. J., J. A. HOLGATE, M. SCHACHTER: THE BRONCHOCONSTRICTOR ACTION OF BRADYKININ IN THE GUINEA-PIG. Brit. J. Pharmacol. 15, 290 (1960) and KONZETT, H. und R. ROSSLER: Versuchsanordnung zu Untersuchungen an der Bronchialmuskulatur. Naunyn-Schmiedebergs Arch. exp. Path. Pharmk. 195, 71-74 (1940)
Drugs were applied p.o. 60 min before antigen. For calculation the following formular was used: [formula]
b=Bronchospasm after antigen injection, measured in mm from tracing
m=maximum height of tracing in mm with arm of the trachea-cannula clamped
a=pre injection height of the tracing in mm
% inhibition of bronchospasm was calculated by comparing control groups with drug pretreated groups 3 min after antigen application.

Take `Cc1c(C)c2ccc(OCCCN3CCC(NC(=O)c4cccs4)CC3)cc2oc1=O` [3,4-Dimethyl-7-{3-[4-(thiophene-2-carboxamido)-piperidino]-propoxy}-cumarin, reference compound]: the “% Inhibition of BrSp (bronchospasm)” value (0.75 mg/kg p.o.) worked out at 0%, the “% Inhibition of BrSp (bronchospasm)” value (1.5 mg/kg p.o.) came out at 40% and the “% Inhibition of BrSp (bronchospasm)” value (3.0 mg/kg p.o.) is recorded as 67%.

With `Cc1cc(=O)c2ccc(OCCCN3CCC(NC(=O)c4ccccc4)CC3)cc2o1` [7-[3-(4-Benzamidopiperidino)-propoxy]-2-methyl-4H-1-benzopyran-4-one], the “% Inhibition of BrSp (bronchospasm)” value was found to be 55% (0.38 mg/kg p.o.) and 64% (0.75 mg/kg p.o.).

On to `Cc1cc(=O)c2ccc(OCCCN3CCC(NC(=O)c4ccccc4C)CC3)cc2o1` [7-{3-[4-(2-methylbenzamido)-piperidino]-propoxy}-2-methyl-4H-1-benzopyran-4-one], for which the “% Inhibition of BrSp (bronchospasm)” value (0.75 mg/kg p.o.) was 60%.

Turning to `Cc1cc(=O)c2ccc(OCCCN3CCC(NC(=O)c4ccc(F)cc4)CC3)cc2o1` [7-{3-[4-(4-fluorobenzamido)-piperidino]-propoxy}-2-methyl-4H-1-benzopyran-4-one], the “% Inhibition of BrSp (bronchospasm)” value (0.38 mg/kg p.o.) was 46%.
